Source: publication PMC12090776 (2025)

Assays:
SARS-CoV-2 E = SARS-CoV-2 E (Severe acute respiratory syndrome coronavirus 2, UniProt P0DTC4); type: binding
SINV 6K = SINV 6K (Sindbis virus, UniProt P03316); assay: UV-Vis absorption of retained compound after overnight dialysis; type: binding; conditions: 3-4x molar excess compound, 1 h on ice, pH 7.6, 0.015% DDM; EGFP negative control
SINV 6K, sequence (P03316 752-806): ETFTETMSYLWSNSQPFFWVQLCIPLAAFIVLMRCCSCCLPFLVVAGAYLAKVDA

SARS-CoV-2 E, sequence (P0DTC4 whole entry): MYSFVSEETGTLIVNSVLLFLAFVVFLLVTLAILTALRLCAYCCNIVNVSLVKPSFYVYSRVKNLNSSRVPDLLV

| SMILES | UV-Vis absorption of retained compound after overnight dialysis (SARS-CoV-2 E) | UV-Vis absorption of retained compound after overnight dialysis (SINV 6K) |
| --- | --- | --- |
| N=C(N)NC(=O)c1nc(Cl)c(N2CCCCCC2)nc1N [HMA] | Both 6K (Fig. 2B) and E (Fig. 2C) proteins bind to the compounds | Both 6K (Fig. 2B) and E (Fig. 2C) proteins bind to the compounds |
| CCN(c1nc(N)c(C(=O)N=C(N)N)nc1Cl)C(C)C [EIPA] | Both 6K (Fig. 2B) and E (Fig. 2C) proteins bind to the compounds | Both 6K (Fig. 2B) and E (Fig. 2C) proteins bind to the compounds |
